PMC10461224, “Development of an Affinity-Based Probe to Profile Endogenous Human Adenosine A3 Receptor Expression” (Journal of Medicinal Chemistry, 2023)

Experiments:
hA3AR [1] = biological target: T1, hA3AR (Homo sapiens, UniProt P0DMS8); assay: Confocal microscopy labeling on CHO cells, click to TAMRA-N3; type: cell-based; conditions: 50 nM, 60 min, versus vehicle, PSB-11 pre-incubation and CHO-K1
T1 construct: expressed in transfected cells; host or cells: CHO cells (CHOhA3AR), gift of Prof; K.N. Klotz, University of Würzburg; used as membrane fractions or live cells
T1 sequence (P0DMS8 1-318): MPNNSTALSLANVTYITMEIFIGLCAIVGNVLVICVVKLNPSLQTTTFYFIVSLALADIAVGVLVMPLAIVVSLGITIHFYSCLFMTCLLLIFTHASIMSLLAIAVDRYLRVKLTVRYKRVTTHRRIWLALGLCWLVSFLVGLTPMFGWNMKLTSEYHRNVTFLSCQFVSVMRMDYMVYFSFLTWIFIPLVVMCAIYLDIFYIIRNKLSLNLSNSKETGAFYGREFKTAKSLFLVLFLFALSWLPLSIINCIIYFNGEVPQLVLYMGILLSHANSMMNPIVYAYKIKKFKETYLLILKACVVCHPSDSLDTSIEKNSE
Description: CHOhA3AR and CHO-K1 cells were cultured in a 96-well plate. Upon reaching a confluency of about 90%, the medium was replaced by medium containing PSB-11 (final concentration: 1 μM) or 1% DMSO (control) and the cells were pre-incubated for 30 min (37 °C and 5% CO2). The medium was then replaced with medium containing 9 (final concentration: 50 nM) or 1% DMSO (vehicle), and the cells were incubated for 60 min (37 °C and 5% CO2). The cells were washed with PBS to remove unbound probe and afterward fixed using a 4% PFA in 10% formalin solution (15 min, rt). The remaining fixative was removed by washing with PBS and subsequently with 20 mM glycine in PBS. The cells were permeabilized by incubation in 0.1% saponin in PBS (10 min, rt). Remaining saponin was removed by a PBS wash, and the cells were stored at 4 °C until further usage. At the day of imaging, PBS was removed and the cells were incubated for 1 h in freshly prepared click mix (100 μL 100 mM CuSO4 in MilliQ, 100 μL 1 M NaAsc in MilliQ, 100 μL […] in MilliQ, 9.66 mL HEPES pH 7.4, and 40 μL 1 mM TAMRA-N3 in DMSO, added in the respective order). […]
CellProfiler (version 2.2.0) was used to create a binary image of the DAPI channel and to propagate the cytoplasmic area based on the DAPI binary. An overlay of the binary cytoplasm/TAMRA channel was generated to quantify per segmented pixel the TAMRA intensity. […]

hA3AR [2] = biological target: T1, hA3AR; assay: SDS-PAGE labeling in CHO membrane fractions, click to Cy5-N3; type: binding; conditions: 50 nM probe, compared with 5 and 13
Description: Membrane fractions were prepared as mentioned above and diluted to a concentration of 1 μg/μL. 18 μL of membrane fractions from either CHOhA3AR or CHO-K1 cells were taken. 1 μL of competing ligand (PSB-11, unless noted otherwise) was added (final concentration: 1 μM in 0.05% DMSO in assay buffer), and the samples were shaken for 30 min at rt. 1 μL of affinity-based probe was then added (final concentration: 50 nM in 0.05% DMSO in assay buffer, unless noted otherwise), and the samples were shaken for 1 h at rt. Deglycosylation was initiated by addition of 0.5 μL of PNGaseF (5 U), 0.5 μL of MilliQ water for the control samples, and the samples were shaken for 1 h at rt. The click mix was freshly prepared by adding together 5 parts 100 mM CuSO4 in MilliQ, 3 parts 1 M sodium ascorbate (NaAsc) in MilliQ, 1 part 100 mM Tris(3-hydroxypropyltriazolylmethyl)amine (THPTA) in MilliQ, and 1 part 100 μM Cy5-N3 in DMSO. […] In-gel fluorescence was measured on a Bio-Rad Universal Hood III using Cy3 (605/50 filter) or Cy5 (695/55 filter) settings. […]
Gel images were analyzed using Image Lab software version 6.0.1 (Bio-Rad). Quantification was done in the following manner: the area under the curve (AUC) of the bands was selected using the ‘Lane Profile’ tab and the adjusted volumes were taken. […]

Structure (SMILES): C#CCOc1ccn2c(c1)nc1c2c(=O)n(CCC)c(=O)n1CCCNC(=O)c1ccc(S(=O)(=O)F)cc1 [compound 9, 4-((3-(2,4-Dioxo-8-(prop-2-yn-1-yloxy)-3-propyl-3,4-dihydropyrido[2,1-f]purin-1(2H)-yl)propyl)carbamoyl)benzenesulfonyl fluoride]
- integrated TAMRA fluorescence intensity (hA3AR [1]): significant increase in intensity
- off-target labeling on gel (hA3AR [2]): fewer other proteins labeled
